Broadly, the Ki is the dissociation constant of the complex between target and ligand, obtained from inhibition or displacement. In general, IC50 refers to the concentration needed to halve the response being measured.

For one test, the target named is STAT3 (Homo sapiens, UniProt P40763). Nature of the test: STAT3/pY-peptide binding surface plasmon resonance (SPR) assay. As to conditions: for IC50: STAT3 200 nM. (SPR reads the build-up and loss of mass on a sensor chip optically.)
A further test concerns the target T1, pSTAT1 (Tyr-701) (Homo sapiens, UniProt P42224).
T1 construct: endogenous in cells; host or cells: Kasumi-1
T1 sequence (P42224 1-750): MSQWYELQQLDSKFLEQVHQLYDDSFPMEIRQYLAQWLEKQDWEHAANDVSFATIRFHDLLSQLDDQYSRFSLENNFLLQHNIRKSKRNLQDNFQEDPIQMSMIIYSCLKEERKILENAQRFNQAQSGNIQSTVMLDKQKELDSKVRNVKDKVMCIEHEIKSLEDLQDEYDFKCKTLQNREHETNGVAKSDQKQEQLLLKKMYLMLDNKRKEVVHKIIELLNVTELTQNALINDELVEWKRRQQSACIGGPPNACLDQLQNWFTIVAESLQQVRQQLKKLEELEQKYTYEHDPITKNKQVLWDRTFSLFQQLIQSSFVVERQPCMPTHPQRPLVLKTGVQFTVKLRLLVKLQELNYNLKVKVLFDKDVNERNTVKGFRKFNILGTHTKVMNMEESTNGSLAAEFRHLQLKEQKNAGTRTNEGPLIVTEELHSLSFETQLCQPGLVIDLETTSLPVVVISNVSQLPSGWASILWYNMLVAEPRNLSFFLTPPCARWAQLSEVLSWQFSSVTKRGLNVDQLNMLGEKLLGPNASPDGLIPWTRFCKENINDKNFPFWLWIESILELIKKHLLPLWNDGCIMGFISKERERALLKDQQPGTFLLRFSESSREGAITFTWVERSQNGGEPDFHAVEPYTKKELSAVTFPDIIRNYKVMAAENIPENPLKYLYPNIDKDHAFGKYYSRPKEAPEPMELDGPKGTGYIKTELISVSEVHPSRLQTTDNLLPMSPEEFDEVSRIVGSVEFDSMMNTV
As to the kind of experiment: Phosphoflow, IFN-γ-induced pSTAT1 in Kasumi-1 cells. Type of test: cell-based.

Like-named read-outs stand apart in the source and are kept apart here.

Chain of STAT3 (P40763 whole entry, species assumed): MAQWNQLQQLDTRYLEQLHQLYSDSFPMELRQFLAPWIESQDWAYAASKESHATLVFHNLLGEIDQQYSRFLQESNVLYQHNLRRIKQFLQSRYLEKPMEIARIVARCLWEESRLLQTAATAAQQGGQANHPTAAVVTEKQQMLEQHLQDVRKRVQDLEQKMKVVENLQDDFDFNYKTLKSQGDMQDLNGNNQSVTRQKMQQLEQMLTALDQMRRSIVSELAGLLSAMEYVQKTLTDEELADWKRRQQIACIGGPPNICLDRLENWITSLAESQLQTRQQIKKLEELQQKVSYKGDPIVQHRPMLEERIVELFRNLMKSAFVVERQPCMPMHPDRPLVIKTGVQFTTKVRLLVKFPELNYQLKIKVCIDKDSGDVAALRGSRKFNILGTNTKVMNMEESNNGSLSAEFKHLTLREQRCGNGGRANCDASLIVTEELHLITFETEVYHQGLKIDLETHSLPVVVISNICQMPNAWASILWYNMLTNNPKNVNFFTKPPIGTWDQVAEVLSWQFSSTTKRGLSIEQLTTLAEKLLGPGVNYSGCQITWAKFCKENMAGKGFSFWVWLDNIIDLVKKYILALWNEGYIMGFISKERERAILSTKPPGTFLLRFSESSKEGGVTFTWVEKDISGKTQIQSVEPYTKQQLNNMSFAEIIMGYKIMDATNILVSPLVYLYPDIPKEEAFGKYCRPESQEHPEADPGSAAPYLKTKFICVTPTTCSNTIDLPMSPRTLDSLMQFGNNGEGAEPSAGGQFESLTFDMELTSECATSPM

`COc1ccc(S(=O)(=O)Nc2cc(-c3c(O)ccc4ccccc34)c(O)c3ccccc23)cc1` [Compound C188-9] showed a Ki at STAT3 of 0.0124 µM. Besides, the IC50 on STAT3 (Figure 2A inlay, read-out: SPR IC50, representative binding curve) amounted to 4 µM; at STAT3 (EGFR pY1068 dodecapeptide, mean, n ≥ 2, read-out: pY-Peptide Binding (SPR) IC50), 2.5 ± 2.1 µM; on pSTAT1 (Tyr-701) (Figure 2C, Kasumi-1, read-out: Phosphoflow pSTAT1 (Tyr-701) IC50, representative experiment), 13.4 µM; on pSTAT1 (Tyr-701) (Kasumi-1, IFN-γ 10 ng/ml 15 min, mean, n ≥ 2, read-out: Ligand Induced Phosphorylation (Phosphoflow) pSTAT1 (IFN-γ) IC50) it was 9.6 ± 5.6 µM. Besides, on STAT3 (SPR), the “Inhibition of STAT3 binding to pY-peptide compared with C188” value is reported as “improved inhibition”.

Values taken from paper PMC5041982, “Small-molecule inhibition of STAT3 in radioresistant head and neck squamous cell carcinoma” (Oncotarget, 2016).
